Assay results reported in patent US5935966A, “Pyrimidine carboxylates and related compounds and methods for treating inflammatory conditions” (Signal Pharmaceuticals, Inc., priority 1996, dated 1999).
Read-outs that look alike come from different tables or passages of the source.

Tested on: NFκB and AP-1
Experiment: NFκB and AP-1 luciferase reporter assays in stable Jurkat T-cells (PMA/PHA stimulated)
Assay type: cell-based, human
Conditions: average of NFκB and AP-1 assays, read-out: ICm (average of the measurements obtained from the NFκB and AP-1 assays)
Excerpt: Stable human Jurkat T-cells containing an NFκB binding site (from the MHC promoter) fused to a minimal SV-40 promoter driving luciferase expression were used in this experiment. Cells were split to 3×10^5 cells/mL every 2-3 days (cell concentration should not exceed 1×10^6 cells/mL to keep the cells proliferating in log phase). These cells were counted, resuspended in fresh medium containing 10% Serum-Plus at a density of 1×10^6 cells/mL and plated in 96 well round bottom plates (200 μ.LAMBDA. per well) 18 hours prior to starting the experiment.
Compounds of this invention, dissolved in dimethyl sulfoxide (3.3, 0.33 and 0.03 μg/mL), were then added to the 96 well plates containing the cells and the plates were incubated for 0.5 h at 37° C. Then 50 ng/mL of phorbol 12-myristate-13-acetate (PMA) and 1 μg/mL of phytohemagglutinin (PHA) were added to each well and the cells were incubated for an additional 5 h at 37° C. The plates were centrifuged at 2200 RPM for 3 minutes at room temperature and then the medium was removed. To each well was added 60 μL of cell lysis buffer and the plates were left at room temperature for 0.25 h. Then 40 μL of each cell extract was transferred to a black 96 well plate and 50 μL of luciferase substrate buffer was added. Luminescence was immediately measured using a Packard TopCount.
For AP-1, the assay was run as described above for NFκB except stable Jurkat T-cells were used that contained a collagenase promoter driving luciferase expression. In addition, the concentration of PMA used was 5 ng/mL.
The IC50 values reported in Table 3 are the average of the measurements obtained from the NFκB and AP-1 assays described above.

| Compound | IC50 [nM] | IC50 (Homo sapiens) [nM] |
| --- | --- | --- |
| 4-[N-(1'-AMINOCITRACONAMIDO)]-5-(N-METHYL TETRAZOLYL)-2-(2"-THIENYL)PYRIMIDINE [Example 135] | 120 | – |
| CCOC(=O)c1cnc(NN2C(=O)C=C(c3ccccc3)C2=O)nc1C(F)(F)F [Example 40, ETHYL 2-[N-(1'-AMINO-3'-PHENYLMALEIMIDO)]-4-TRIFLUOROMETHYLPYRIMIDINE-5-CARBOXYLATE] | – | 1000 |
| CCOC(=O)c1cnc(NN2C(=O)C(CC)=C(CC)C2=O)nc1C(F)(F)F [Example 41, ETHYL 2-[N-(1'-AMINO-3',4'-DIETHYLMALEIMIDO)]-4-TRIFLUOROMETHYLPYRIMIDINE-5-CARBOXYLATE] | 3900 | – |
| CCOC(=O)c1cnc(N(C)N2C(=O)C=C(C)C2=O)nc1C(F)(F)F [Example 42, ETHYL 2-[N-(1'-AMINOCITRACONAMIDO)-N-METHYL]-4-TRIFLUOROMETHYLPYRIMIDINE-5-CARBOXYLATE] | – | 5000 |
| COC(=O)c1cnc(NN2C(=O)C=C(C)C2=O)nc1C(F)(F)C(F)(F)F [Example 77, METHYL 2-[N-(1'-AMINOCITRACONAMIDO)]-4-PENTAFLUOROETHYLPYRIMIDINE-5-CARBOXYLATE] | – | 1300 |
| CC1=CC(=O)N(Nc2ncc(C(=O)c3ccccc3)c(C(F)(F)F)n2)C1=O [Example 87, 5-BENZOYL 2-[N-(1'-AMINOCITRACONAMIDO)]-4-TRIFLUOROMETHYLPYRIMIDINE] | – | 550 |
| CCOC(=O)c1cnc(NN2C(=O)C=C(C)C2=O)nc1-c1ccco1 [Example 91, ETHYL 2-[N-(1'-AMINOCITRACONAMIDO)]-4-(2'-FURANYL)PYRIMIDINE-5-CARBOXYLATE] | – | 1100 |
| CCOC(=O)c1cnc(NN2C(=O)C=C(C)C2=O)nc1-c1cc2ccccc2s1 [Example 93, ETHYL 2-[N-(1'-AMINOCITRACONAMIDO)]-4-(2'-THIANAPHTHYL)PYRIMIDINE-5-CARBOXYLATE] | – | 800 |
| CCN(c1ncc(C(=O)OC)c(C(F)(F)F)n1)N1C(=O)C=C(C)C1=O [Example 94, METHYL 2-[N-(1'-AMINOCITRACONAMIDO-N-ETHYL)]-4-TRIFLUOROMETHYLPYRIMIDINE-5-CARBOXYLATE] | – | 1100 |
| CCOC(=O)c1cnc(N(C(=O)NC)N2C(=O)C=C(C)C2=O)nc1C(F)(F)F [Example 96, ETHYL 2-[N-(1'-AMINOCITRACONAMIDO)-N-(N'-METHYLCARBOXAMIDYL)]-4-TRIFLUOROMETHYLPYRIMIDINE-5-CARBOXYLATE] | – | 700 |
| CCOC(=O)c1cnc(N(C(=O)Cc2ccccc2)N2C(=O)C=C(C)C2=O)nc1C(F)(F)F [Example 97, ETHYL 2-[N-(1'-AMINOCITRACONAMIDO)-N-(1-OXO-2"-PHENYLETHYL]-4-TRIFLUOROMETHYLPYRIMIDINE-5-CARBOXYLATE] | – | 900 |
| CCOC(=O)c1cnc(NN2C(=O)C=C(C)C2=O)nc1COC [Example 98, ETHYL 2-[N-(1'-AMINOCITRACONAMIDO)]-4-METHOXYMETHYL PYRIMIDINE-5-CARBOXYLATE] | – | 6000 |
| CCOC(=O)c1cnc(N(C(=O)c2ccccc2)N2C(=O)C=C(C)C2=O)nc1C(F)(F)F [Example 100, ETHYL 2-[N-(1'-AMINOCITRACONAMIDO)-N-BENZOYL]-4-TRIFLUOROMETHYLPYRIMIDINE-5-CARBOXYLATE] | – | 800 |
| CCc1nc(NN2C(=O)C=C(C)C2=O)ncc1C(=O)c1ccccc1 [Example 101, 5-BENZOYL 2-[N-(1'-AMINOCITRACONAMIDO)]-4-ETHYLPYRIMIDINE] | – | 600 |
| CCOC(=O)c1cnc(NN2C(=O)C=C(C)C2=O)nc1-c1nccs1 [Example 105, ETHYL 2-[N-(1'-AMINOCITRACONAMIDO)]-4-(2'-THIAZOLYL)PYRIMIDINE-5-CARBOXYLATE] | – | 2400 |
| CCOC(=O)c1cnc(N(C)N2C(=O)C=C(C)C2=O)nc1-c1nccs1 [Example 106, ETHYL 2-[N-(1'-AMINOCITRACONAMIDO)-N-METHYL]-4-(2'-THIAZOLYL)PYRIMIDINE-5-CARBOXYLATE] | – | 1700 |
| CCOC(=O)c1cnc(NN2C(=O)C=C(C)C2=O)nc1C1CC1 [Example 108, ETHYL 2-[N-(1'-AMINOCITRACONAMIDO)]-4-CYCLOPROPYLPYRIMIDINE-5-CARBOXYLATE] | – | 1500 |

The remaining lines, values ahead:

| IC50 [nM] | IC50 (Homo sapiens) [nM] | Compound |
| --- | --- | --- |
| – | 400 | CCOC(=O)c1cnc(N(C)N2C(=O)C=C(C)C2=O)nc1-c1ccc(Cl)s1 [Example 68, ETHYL 2-[N-(1'-AMINOCITRACONAMIDO)-N-METHYL]-4-[2'-(5"-HLOROTHIENYL]PYRIMIDINE-5-CARBOXYLATE] |
| – | 50 | CCOC(=O)c1cnc(N(C)N2C(=O)C=C(C)C2=O)nc1CC [Example 73, ETHYL 2-[N-(1'-AMINOCITRACONAMIDO)-N-METHYL]-4-ETHYLPRYRIMIDINE-5-CARBOXYLATE] |
| – | 450 | CCCc1nc(N(C(C)=O)N2C(=O)C=C(C)C2=O)ncc1C(=O)OCC [Example 74, ETHYL 2-[N-ACETYL-N-(1'-AMINOCITRACONAMIDO)]-4-PROPYLPYRIMIDINE-5-CARBOXYLATE] |
| – | 400 | CCOC(=O)c1cnc(N(C(C)=O)N2C(=O)C=C(C)C2=O)nc1C(F)(F)F [Example 75, ETHYL 2-[N-ACETYL-N-(1'-AMINOCITRACONAMIDO)]-4-TRIFLUOROMETHYLPYRIMIDINE-5-CARBOXYLATE] |
| – | 150 | COC(=O)c1cnc(N(C)N2C(=O)C=C(C)C2=O)nc1C(F)(F)C(F)(F)F [Example 78, METHYL 2-[N-(1'-AMINOCITRACONAMIDO)]-N-METHYL]-4-PENTAFLUOROETHYLPYRMIDINE-5-CARBOXYLATE] |
| – | 200 | CC1=CC(=O)N(Nc2ncc(C(=O)OC(C)(C)C)c(C(F)(F)F)n2)C1=O [Example 79, t-BUTYL 2-[N-(1'-AMINOCITRACONAMIDO)]-4-TRIFLUOROMETHYLPYRIMIDINE-5-CARBOXYLATE] |
| – | 100 | COC(=O)c1cnc(N(C)N2C(=O)C=C(C)C2=O)nc1C(F)(F)F [Example 81, METHYL 2-[N-(1'-AMINOCITRACONAMIDO)-N-METHYL]-4-TRIFLUOROMETHYLPYRIMIDINE-5-CARBOXYLATE] |
| – | 80 | COC(=O)c1cnc(NN2C(=O)C=C(C)C2=O)nc1-c1cccs1 [Example 83, METHYL 2-[N-(1'-AMINOCITRACONAMIDO)]-4-(2'-THIENYL)PYRIMIDINE-5-CARBOXYLATE] |
| – | 450 | CCOC(=O)c1cnc(N(Cc2ccccc2)N2C(=O)C=C(C)C2=O)nc1C(F)(F)F [Example 84, ETHYL 2-[N-(1'-AMINOCITRACONAMIDO-N-BENZYL)]-4-TRIFLUOROMETHYLPYRIMIDINE-5-CARBOXYLATE] |
| – | 20 | CCOC(=O)c1cnc(N(C)N2C(=O)C=C(C)C2=O)nc1-c1cccs1 [Example 85, ETHYL 2-[N-(1'-AMINOCITRACONAMIDO-N-METHYL)]-4-(2'-THIENYL)PYRIMIDINE-5-CARBOXYLATE] |
| – | 500 | CCOC(=O)c1cnc(NN2C(=O)C=C(C)C2=O)nc1-c1ccsc1 [Example 88, ETHYL 2-[N-(1'-AMINOCITRACONAMIDO)]-4-(3'-THIENYL)PYRIMIDINE-5-CARBOXYLATE] |
| – | 200 | CCOC(=O)c1cnc(N(C)N2C(=O)C=C(C)C2=O)nc1-c1ccsc1 [Example 89, ETHYL 2-[N-(1'-AMINOCITRACONAMIDO-N-METHYL)]-4-(3-THIENYL)PYRIMIDINE-5-CARBOXYLATE] |
| – | 60 | CCOC(=O)c1cnc(NN2C(=O)C=C(C)C2=O)nc1-c1ccc(C)s1 [Example 90, ETHYL 2-[N-(1'-AMINOCITRACONAMIDO)]-4-[2'-(5'-METHYLTHIENYL)]PYRIMIDINE-5-CARBOXYLATE] |
| – | 300 | CCOC(=O)c1cnc(N(C)N2C(=O)C=C(C)C2=O)nc1-c1ccc(C)s1 [Example 92, ETHYL 2-[N-(1'-AMINOCITRACONAMIDO-N-METHYL)]-4-[2'-(5'-METHYLTHIENYL)]PYRIMIDINE-5-CARBOXYLATE] |
| – | 300 | CCCC(=O)N(c1ncc(C(=O)OCC)c(C(F)(F)F)n1)N1C(=O)C=C(C)C1=O [Example 95, ETHYL 2-[N-(1'-AMINOCITRACONAMIDO-N-BUTANOYL)]-4-TRIFLUOROMETHYLPYRIMIDINE-5-CARBOXYLATE] |
| – | 400 | CCOC(=O)c1cnc(N(C(=O)OCC)N2C(=O)C=C(C)C2=O)nc1C(F)(F)F [Example 99, ETHYL 2-[N-(1'-AMINOCITRACONAMIDO)-N-(ETHOXYCARBONYL)]-4-TRIFLUOROMETHYLPYRIMIDINE-5-CARBOXYLATE] |
| – | 400 | CCc1nc(N(C)N2C(=O)C=C(C)C2=O)ncc1C(=O)c1ccccc1 [Example 102, 5-BENZOYL 2-[N-(1'-AMINOCITRACONAMIDO)-N-METHYL]-4-ETHYLPYRIMIDINE] |
| – | 400 | CCOC(=O)c1cnc(N(C)N2C(=O)C=C(C)C2=O)nc1C(F)(F)C(F)(F)F [Example 103, ETHYL-2-[N-(1'-AMINOCITRACONAMIDO)-N-METHYL]-4-PENTAFLUOROETHYLPYRIMIDINE-5-CARBOXYLATE] |
| – | 200 | CCOC(=O)c1cnc(N(C)N2C(=O)C=C(C)C2=O)nc1-c1cc2ccccc2s1 [Example 104, ETHYL 2-[N-(1'-AMINOCITRACONAMIDO)]-4-(2'-THIANAPHTHYL)PYRIMIDINE-5-CARBOXYLATE] |
| – | 500 | CCCC(=O)c1cnc(N(C)N2C(=O)C=C(C)C2=O)nc1CC [Example 107, 5-BUTANOYL 2-[N-(1'-AMINOCITRACONAMIDO-N-METHYL)]-4-ETHYLPYRIMIDINE] |
